{"source": "ChEMBL document CHEMBL5055685", "about": "“Discovery of the First Potent IDO1/IDO2 Dual Inhibitors: A Promising Strategy for Cancer Immunotherapy” (J Med Chem, 2021)", "key": {"[1]": {"target": "Epidermal growth factor receptor (Homo sapiens) (UniProt P00533)", "experiment": "Inhibition of EGFR (unknown origin) at 1 uM"}, "[2]": {"target": "Calcium/calmodulin-dependent protein kinase type IV (Homo sapiens) (UniProt Q16566)", "sequence (Q16566 whole entry)": "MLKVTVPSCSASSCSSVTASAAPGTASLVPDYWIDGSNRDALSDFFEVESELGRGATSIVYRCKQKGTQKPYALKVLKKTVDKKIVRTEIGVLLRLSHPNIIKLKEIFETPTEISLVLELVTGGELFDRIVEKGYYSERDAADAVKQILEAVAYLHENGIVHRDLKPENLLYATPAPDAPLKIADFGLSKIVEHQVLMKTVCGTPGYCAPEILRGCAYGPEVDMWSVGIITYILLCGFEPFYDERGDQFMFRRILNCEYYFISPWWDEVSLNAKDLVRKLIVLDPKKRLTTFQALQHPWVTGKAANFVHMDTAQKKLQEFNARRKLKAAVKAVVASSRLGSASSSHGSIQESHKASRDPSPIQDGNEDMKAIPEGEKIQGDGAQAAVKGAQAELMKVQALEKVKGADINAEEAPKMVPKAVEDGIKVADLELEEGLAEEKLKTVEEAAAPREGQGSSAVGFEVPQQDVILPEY", "experiment": "Inhibition of CAMK4 (unknown origin) at 1 uM"}, "[3]": {"target": "ALK tyrosine kinase receptor (Homo sapiens) (UniProt Q9UM73)", "sequence (Q9UM73 19-1620 limits assumed)": "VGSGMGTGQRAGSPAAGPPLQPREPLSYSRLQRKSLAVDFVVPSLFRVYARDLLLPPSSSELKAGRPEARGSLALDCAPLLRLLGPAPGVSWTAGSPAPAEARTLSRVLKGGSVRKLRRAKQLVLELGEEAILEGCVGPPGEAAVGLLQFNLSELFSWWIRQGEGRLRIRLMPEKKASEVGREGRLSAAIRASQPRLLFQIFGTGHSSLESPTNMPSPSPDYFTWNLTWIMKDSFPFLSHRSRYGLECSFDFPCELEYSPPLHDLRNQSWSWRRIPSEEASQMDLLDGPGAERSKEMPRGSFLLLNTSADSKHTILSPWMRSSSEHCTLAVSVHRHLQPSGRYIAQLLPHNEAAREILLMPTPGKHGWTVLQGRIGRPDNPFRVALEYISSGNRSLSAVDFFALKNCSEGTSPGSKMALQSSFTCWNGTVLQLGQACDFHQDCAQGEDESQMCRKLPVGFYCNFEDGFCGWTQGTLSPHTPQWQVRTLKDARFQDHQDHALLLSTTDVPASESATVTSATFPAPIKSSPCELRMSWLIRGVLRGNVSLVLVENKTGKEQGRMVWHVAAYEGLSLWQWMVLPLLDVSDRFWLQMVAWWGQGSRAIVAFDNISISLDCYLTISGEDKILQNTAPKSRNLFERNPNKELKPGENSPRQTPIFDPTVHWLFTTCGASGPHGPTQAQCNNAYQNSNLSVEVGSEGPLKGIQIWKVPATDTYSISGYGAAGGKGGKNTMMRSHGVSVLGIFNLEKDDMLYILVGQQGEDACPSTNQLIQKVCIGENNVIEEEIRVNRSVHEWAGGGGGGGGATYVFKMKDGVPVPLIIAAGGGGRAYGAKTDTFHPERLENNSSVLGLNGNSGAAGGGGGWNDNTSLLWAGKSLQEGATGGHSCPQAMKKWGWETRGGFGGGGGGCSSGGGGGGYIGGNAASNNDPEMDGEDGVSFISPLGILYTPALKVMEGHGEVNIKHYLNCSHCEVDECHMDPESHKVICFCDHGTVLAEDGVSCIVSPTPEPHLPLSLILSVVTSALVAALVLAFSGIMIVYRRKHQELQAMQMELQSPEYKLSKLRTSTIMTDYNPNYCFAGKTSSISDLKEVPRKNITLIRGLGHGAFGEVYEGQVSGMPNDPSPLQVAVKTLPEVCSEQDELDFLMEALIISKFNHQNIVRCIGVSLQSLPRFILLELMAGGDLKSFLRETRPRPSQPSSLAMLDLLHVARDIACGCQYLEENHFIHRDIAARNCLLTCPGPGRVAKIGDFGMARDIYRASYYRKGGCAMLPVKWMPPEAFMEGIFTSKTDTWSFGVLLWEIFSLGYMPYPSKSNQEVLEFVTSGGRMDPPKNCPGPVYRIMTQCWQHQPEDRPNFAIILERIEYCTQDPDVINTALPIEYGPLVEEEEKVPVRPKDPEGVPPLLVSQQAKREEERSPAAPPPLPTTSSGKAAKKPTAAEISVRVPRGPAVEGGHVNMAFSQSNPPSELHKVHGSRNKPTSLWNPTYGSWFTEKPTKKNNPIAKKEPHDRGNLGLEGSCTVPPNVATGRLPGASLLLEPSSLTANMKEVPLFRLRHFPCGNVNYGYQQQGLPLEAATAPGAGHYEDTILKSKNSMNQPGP", "experiment": "Inhibition of ALK (unknown origin) at 1 uM"}, "[4]": {"target": "Tyrosine-protein kinase Tec (Homo sapiens) (UniProt P42680)", "experiment": "Inhibition of TEC (unknown origin) at 1 uM"}, "[5]": {"system": "HCT-116", "experiment": "Antitumor immunity in BALB/c mouse xenografted with human HCT-116 cells assessed as increase in CD80 expression in CD11c+ cells by propidium iodide staining based flow cytometry analysis (reference value: 79.8 %)", "assay_type": "functional"}, "[6]": {"target": "Tyrosine-protein kinase JAK2 (Homo sapiens) (UniProt O60674)", "experiment": "Inhibition of JAK2 (unknown origin) at 1 uM"}, "[7]": {"target": "CDK6/cyclin D3 (Homo sapiens) (UniProt P30281+Q00534)", "experiment": "Inhibition of CDK6/cyclin-D3 (unknown origin) at 1 uM", "assay_type": "protein-complex assay"}, "[8]": {"target": "CDK2/Cyclin O (Homo sapiens) (UniProt P24941+P22674)", "experiment": "Inhibition of CDK2/cyclin-O (unknown origin) at 1 uM", "assay_type": "protein-complex assay"}, "[9]": {"experiment": "Half life in monkey liver microsomes", "assay_type": "ADME, Macaca mulatta, Microsome", "settings": "rhesus monkey"}, "[10]": {"system": "HCT-116", "experiment": "Antitumor immunity in BALB/c mouse xenografted with human HCT-116 cells assessed as increase in IFNgamma in serum by […]", "assay_type": "functional, cell-based"}, "[11]": {"experiment": "Protein binding in Sprague-Dawley rat plasma by equilibrium dialysis", "assay_type": "ADME, cell-free", "settings": "read-out: PPB (converted)"}, "[12]": {"target": "CDK9/Cyclin-T2 (Homo sapiens) (UniProt P50750+O60583)", "experiment": "Inhibition of CDK9/cyclin-T2 (unknown origin) at 1 uM", "assay_type": "protein-complex assay"}, "[13]": {"target": "Casein kinase I isoform gamma-2 (Homo sapiens) (UniProt P78368)", "sequence (P78368 whole entry, looked up, canonical isoform)": "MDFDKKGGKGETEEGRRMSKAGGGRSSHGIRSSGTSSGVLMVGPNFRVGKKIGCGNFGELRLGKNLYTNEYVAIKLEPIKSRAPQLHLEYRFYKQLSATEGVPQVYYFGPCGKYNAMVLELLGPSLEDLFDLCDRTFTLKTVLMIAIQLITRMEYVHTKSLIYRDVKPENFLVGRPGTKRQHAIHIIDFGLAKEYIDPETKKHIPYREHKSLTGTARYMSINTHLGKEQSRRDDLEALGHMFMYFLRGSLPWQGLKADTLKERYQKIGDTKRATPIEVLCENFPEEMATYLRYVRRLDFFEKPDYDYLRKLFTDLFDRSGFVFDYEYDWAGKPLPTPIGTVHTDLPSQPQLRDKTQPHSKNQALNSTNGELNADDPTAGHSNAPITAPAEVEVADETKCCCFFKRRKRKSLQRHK", "experiment": "Inhibition of CK1gamma2 (unknown origin) at 1 uM"}, "[14]": {"target": "Tyrosine-protein kinase BTK (Homo sapiens) (UniProt Q06187)", "sequence (Q06187 whole entry)": "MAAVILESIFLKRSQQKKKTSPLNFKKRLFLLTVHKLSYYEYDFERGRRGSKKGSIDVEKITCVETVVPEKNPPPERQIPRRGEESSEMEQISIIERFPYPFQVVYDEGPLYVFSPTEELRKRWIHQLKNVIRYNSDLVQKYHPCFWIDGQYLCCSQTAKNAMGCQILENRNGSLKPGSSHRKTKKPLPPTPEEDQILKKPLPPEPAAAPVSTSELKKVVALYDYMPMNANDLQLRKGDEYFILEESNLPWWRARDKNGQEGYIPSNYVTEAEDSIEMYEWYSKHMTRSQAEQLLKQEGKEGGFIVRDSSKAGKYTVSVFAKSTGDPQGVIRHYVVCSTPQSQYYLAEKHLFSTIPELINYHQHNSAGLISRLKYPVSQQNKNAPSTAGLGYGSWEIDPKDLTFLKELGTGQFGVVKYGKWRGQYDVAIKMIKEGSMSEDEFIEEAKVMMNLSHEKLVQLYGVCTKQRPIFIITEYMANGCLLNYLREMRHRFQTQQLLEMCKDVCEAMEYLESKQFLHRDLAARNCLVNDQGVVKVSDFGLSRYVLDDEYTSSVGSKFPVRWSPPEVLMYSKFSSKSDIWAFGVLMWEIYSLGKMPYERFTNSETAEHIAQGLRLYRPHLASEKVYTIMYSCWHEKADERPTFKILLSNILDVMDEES", "experiment": "Inhibition of BTK (unknown origin) at 1 uM"}, "[15]": {"target": "MAP/microtubule affinity-regulating kinase 3 (Homo sapiens) (UniProt P27448)", "experiment": "Inhibition of MARK3 (unknown origin) at 1 uM"}, "[16]": {"system": "HCT-116", "experiment": "Antitumor immunity in BALB/c mouse xenografted with human HCT-116 cells assessed as late Treg cells in spleen by propidium iodide staining based flow cytometry analysis (reference value: 10.3 %)", "assay_type": "functional"}, "[17]": {"experiment": "Oral bioavailability in Sprague-Dawley rat at 50 mg/kg", "assay_type": "ADME, organism-based", "settings": "in vivo"}, "[18]": {"target": "Serine/threonine-protein kinase tousled-like 1 (Homo sapiens) (UniProt Q9UKI8)", "experiment": "Inhibition of TLK1 (unknown origin) at 1 uM"}, "[19]": {"target": "Serine/threonine-protein kinase 10 (Homo sapiens) (UniProt O94804)", "experiment": "Inhibition of LOK (unknown origin) at 1 uM"}, "[20]": {"target": "Maternal embryonic leucine zipper kinase (Homo sapiens) (UniProt Q14680)", "experiment": "Inhibition of MELK (unknown origin) at 1 uM"}, "[21]": {"target": "Ephrin type-B receptor 3 (Homo sapiens) (UniProt P54753)", "experiment": "Inhibition of EPHB3 (unknown origin) at 1 uM"}, "[22]": {"target": "Mitogen-activated protein kinase kinase kinase 7 (Homo sapiens) (UniProt O43318)", "experiment": "Inhibition of TAK1 (unknown origin) at 1 uM"}, "[23]": {"target": "CDK4/Cyclin D3 (Homo sapiens) (UniProt P11802+P30281)", "experiment": "Inhibition of CDK4/cyclin-D3 (unknown origin) at 1 uM", "assay_type": "protein-complex assay"}, "[24]": {"target": "Receptor tyrosine-protein kinase erbB-2 (Homo sapiens) (UniProt P04626)", "experiment": "Inhibition of ERBB2 (unknown origin) at 1 uM"}, "[25]": {"target": "Dual specificity tyrosine-phosphorylation-regulated kinase 1A (Homo sapiens) (UniProt Q13627)", "experiment": "Inhibition of DYRK1A (unknown origin) at 1 uM"}, "[26]": {"target": "High affinity nerve growth factor receptor (Homo sapiens) (UniProt P04629)", "experiment": "Inhibition of TRKA (unknown origin) at 1 uM"}, "[27]": {"target": "Tau-tubulin kinase 1 (Homo sapiens) (UniProt Q5TCY1)", "experiment": "Inhibition of TTBK1 (unknown origin) at 1 uM"}, "[28]": {"experiment": "Protein binding in monkey plasma assessed as fraction unbound by equilibrium dialysis", "assay_type": "ADME, cell-free, Macaca mulatta", "settings": "rhesus monkey"}, "[29]": {"target": "CDK1/Cyclin E (Homo sapiens) (UniProt P06493+P24864)", "experiment": "Inhibition of CDK1/cyclinE (unknown origin) at 1 uM", "assay_type": "protein-complex assay"}, "[30]": {"target": "Fibroblast growth factor receptor 1 (Homo sapiens) (UniProt P11362)", "sequence (P11362 22-822 limits assumed)": "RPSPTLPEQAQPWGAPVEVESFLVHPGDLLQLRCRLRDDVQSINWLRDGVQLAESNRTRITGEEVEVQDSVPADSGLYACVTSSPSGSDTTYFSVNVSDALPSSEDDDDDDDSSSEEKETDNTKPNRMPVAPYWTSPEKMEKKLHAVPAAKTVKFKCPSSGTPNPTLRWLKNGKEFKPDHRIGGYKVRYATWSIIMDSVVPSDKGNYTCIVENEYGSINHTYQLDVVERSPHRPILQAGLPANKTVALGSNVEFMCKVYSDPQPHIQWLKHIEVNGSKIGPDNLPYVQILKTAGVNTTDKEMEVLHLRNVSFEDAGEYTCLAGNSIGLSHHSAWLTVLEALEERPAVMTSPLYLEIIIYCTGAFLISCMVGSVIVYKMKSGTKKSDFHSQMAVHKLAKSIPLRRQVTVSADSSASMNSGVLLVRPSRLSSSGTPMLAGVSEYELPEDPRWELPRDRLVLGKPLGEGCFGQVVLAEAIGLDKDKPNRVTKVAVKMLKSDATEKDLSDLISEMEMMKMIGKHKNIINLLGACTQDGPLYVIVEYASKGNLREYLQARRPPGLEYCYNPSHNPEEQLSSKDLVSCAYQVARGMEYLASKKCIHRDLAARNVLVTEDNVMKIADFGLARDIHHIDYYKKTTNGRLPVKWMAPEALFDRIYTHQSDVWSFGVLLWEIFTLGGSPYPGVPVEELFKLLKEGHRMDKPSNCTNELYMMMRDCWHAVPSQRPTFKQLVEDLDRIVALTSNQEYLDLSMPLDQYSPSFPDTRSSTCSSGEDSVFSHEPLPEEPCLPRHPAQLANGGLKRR", "experiment": "Inhibition of FGFR1 (unknown origin) at 1 uM"}, "[31]": {"target": "Serine/threonine-protein kinase 32C (Homo sapiens) (UniProt Q86UX6)", "experiment": "Inhibition of STK32C (unknown origin) at 1 uM"}, "[32]": {"species": "Homo sapiens", "experiment": "Inhibition of ALK6 (unknown origin) at 1 uM"}, "[33]": {"target": "Dual specificity protein kinase CLK3 (Homo sapiens) (UniProt P49761)", "experiment": "Inhibition of CLK3 (unknown origin) at 1 uM"}, "[34]": {"target": "PAS domain-containing serine/threonine-protein kinase (Homo sapiens) (UniProt Q96RG2)", "experiment": "Inhibition of PASK (unknown origin) at 1 uM"}, "[35]": {"target": "Cyclin-dependent kinase 14/Cyclin-Y (Homo sapiens) (UniProt O94921+Q8ND76)", "experiment": "Inhibition of CDK14/cyclin-Y (unknown origin) at 1 uM", "assay_type": "protein-complex assay"}, "[36]": {"target": "STE20/SPS1-related proline-alanine-rich protein kinase (Homo sapiens) (UniProt Q9UEW8)", "experiment": "Inhibition of STK39 (unknown origin) at 1 uM"}, "[37]": {"target": "Inhibitor of nuclear factor kappa-B kinase subunit epsilon (Homo sapiens) (UniProt Q14164)", "experiment": "Inhibition of IKKepsilon (unknown origin) at 1 uM"}, "[38]": {"target": "cGMP-dependent protein kinase 1 (Homo sapiens) (UniProt Q13976)", "experiment": "Inhibition of PKG1beta (unknown origin) at 1 uM"}, "[39]": {"target": "Hepatocyte growth factor receptor (Homo sapiens) (UniProt P08581)", "experiment": "Inhibition of c-MET (unknown origin) at 1 uM"}, "[40]": {"target": "Bone morphogenetic protein receptor type-1A (Homo sapiens) (UniProt P36894)", "experiment": "Inhibition of ALK3 (unknown origin) at 1 uM"}, "[41]": {"target": "Protein kinase C theta type (Homo sapiens) (UniProt Q04759)", "sequence (Q04759 whole entry, looked up)": "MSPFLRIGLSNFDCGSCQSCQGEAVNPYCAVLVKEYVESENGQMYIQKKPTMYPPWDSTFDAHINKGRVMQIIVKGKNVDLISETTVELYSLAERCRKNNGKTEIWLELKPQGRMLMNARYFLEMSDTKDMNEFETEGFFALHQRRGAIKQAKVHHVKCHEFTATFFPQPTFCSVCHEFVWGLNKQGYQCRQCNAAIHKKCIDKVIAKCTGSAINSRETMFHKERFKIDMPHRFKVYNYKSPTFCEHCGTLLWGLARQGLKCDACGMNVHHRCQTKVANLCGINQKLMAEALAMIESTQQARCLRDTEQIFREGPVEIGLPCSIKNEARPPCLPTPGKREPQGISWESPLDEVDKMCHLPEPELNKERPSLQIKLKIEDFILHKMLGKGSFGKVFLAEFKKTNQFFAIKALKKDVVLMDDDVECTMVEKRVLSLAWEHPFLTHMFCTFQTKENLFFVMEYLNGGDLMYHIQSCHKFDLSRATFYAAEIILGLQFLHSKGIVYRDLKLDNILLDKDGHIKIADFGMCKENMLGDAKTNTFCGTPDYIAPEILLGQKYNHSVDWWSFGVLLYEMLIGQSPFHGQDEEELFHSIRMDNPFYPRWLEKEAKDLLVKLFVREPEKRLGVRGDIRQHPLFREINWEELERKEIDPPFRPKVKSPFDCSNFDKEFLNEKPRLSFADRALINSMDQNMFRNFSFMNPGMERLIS", "experiment": "Inhibition of PKCtheta (unknown origin) at 1 uM"}, "[42]": {"target": "Indoleamine 2,3-dioxygenase 1 (Mus musculus) (UniProt P28776)", "sequence (P28776 whole entry, looked up)": "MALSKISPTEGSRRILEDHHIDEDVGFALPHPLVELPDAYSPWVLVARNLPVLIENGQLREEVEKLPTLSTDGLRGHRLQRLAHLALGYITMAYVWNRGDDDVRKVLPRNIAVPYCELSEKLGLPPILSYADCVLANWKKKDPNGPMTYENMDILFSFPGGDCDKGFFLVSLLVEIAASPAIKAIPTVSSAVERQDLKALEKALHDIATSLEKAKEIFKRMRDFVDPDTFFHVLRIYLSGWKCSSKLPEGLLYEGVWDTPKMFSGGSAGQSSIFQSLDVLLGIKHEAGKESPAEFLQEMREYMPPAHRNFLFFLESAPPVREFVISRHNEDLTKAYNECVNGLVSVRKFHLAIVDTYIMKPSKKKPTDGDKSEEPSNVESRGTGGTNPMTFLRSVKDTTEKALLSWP", "experiment": "In vivo inhibition of IDO1 in BALB/c mouse xenografted with human HCT-116 cells assessed as suppression of IDO1 expression in tumor by immunohistochemical assay", "assay_type": "functional, organism-based"}, "[43]": {"target": "Tyrosine-protein kinase receptor TYRO3 (Homo sapiens) (UniProt Q06418)", "experiment": "Inhibition of TYRO3 (unknown origin) at 1 uM"}, "[44]": {"target": "Serine/threonine-protein kinase 4 (Homo sapiens) (UniProt Q13043)", "experiment": "Inhibition of MST1 (unknown origin) at 1 uM"}}, "note": "Activity calls are given as the source filed them. No cut-off for these calls is given here."}
{"smiles": "OCCOCc1cn(CCNc2nonc2/C(=N/O)Nc2ccc(F)c(Br)c2)nn1", "values": [{"measurement": "inhibition", "setting": "[1]", "value": "inactive"}, {"measurement": "inhibition", "setting": "[2]", "value": "inactive"}, {"measurement": "inhibition", "setting": "[3]", "value": "inactive"}, {"measurement": "inhibition", "setting": "[4]", "value": "inactive"}, {"measurement": "Activity", "setting": "[5]", "value": 75.8, "unit": "%"}, {"measurement": "inhibition", "setting": "[6]", "value": "inactive"}, {"measurement": "inhibition", "setting": "[7]", "value": "inactive"}, {"measurement": "inhibition", "setting": "[8]", "value": "inactive"}, {"measurement": "half-life", "setting": "[9]", "value": 38.6, "unit": "min"}, {"measurement": "Activity", "setting": "[10]", "value": "Active"}, {"measurement": "fraction unbound", "setting": "[11]", "value": 0.0672}, {"measurement": "inhibition", "setting": "[12]", "value": "inactive"}, {"measurement": "inhibition", "setting": "[13]", "value": "inactive"}, {"measurement": "inhibition", "setting": "[14]", "value": "inactive"}, {"measurement": "inhibition", "setting": "[15]", "value": "inactive"}, {"measurement": "Activity", "setting": "[16]", "value": 7.24, "unit": "%"}, {"measurement": "bioavailability", "setting": "[17]", "value": 12, "unit": "%"}, {"measurement": "inhibition", "setting": "[18]", "value": "inactive"}, {"measurement": "inhibition", "setting": "[19]", "value": "inactive"}, {"measurement": "inhibition", "setting": "[20]", "value": "inactive"}, {"measurement": "inhibition", "setting": "[21]", "value": "inactive"}, {"measurement": "inhibition", "setting": "[22]", "value": "inactive"}, {"measurement": "inhibition", "setting": "[23]", "value": "inactive"}, {"measurement": "inhibition", "setting": "[24]", "value": "inactive"}, {"measurement": "inhibition", "setting": "[25]", "value": "inactive"}, {"measurement": "inhibition", "setting": "[26]", "value": "inactive"}, {"measurement": "inhibition", "setting": "[27]", "value": "inactive"}, {"measurement": "fraction unbound", "setting": "[28]", "value": 0.0763}, {"measurement": "inhibition", "setting": "[29]", "value": "inactive"}, {"measurement": "inhibition", "setting": "[30]", "value": "inactive"}, {"measurement": "inhibition", "setting": "[31]", "value": "inactive"}, {"measurement": "inhibition", "setting": "[32]", "value": "inactive"}, {"measurement": "inhibition", "setting": "[33]", "value": "inactive"}, {"measurement": "inhibition", "setting": "[34]", "value": "inactive"}, {"measurement": "inhibition", "setting": "[35]", "value": "inactive"}, {"measurement": "inhibition", "setting": "[36]", "value": "inactive"}, {"measurement": "inhibition", "setting": "[37]", "value": "inactive"}, {"measurement": "inhibition", "setting": "[38]", "value": "inactive"}, {"measurement": "inhibition", "setting": "[39]", "value": "inactive"}, {"measurement": "inhibition", "setting": "[40]", "value": "inactive"}, {"measurement": "inhibition", "setting": "[41]", "value": "inactive"}, {"measurement": "inhibition", "setting": "[42]", "value": "Active"}, {"measurement": "inhibition", "setting": "[43]", "value": "inactive"}, {"measurement": "inhibition", "setting": "[44]", "value": "inactive"}]}
